Laboratory results taken from patent US20100150863A1, “HYDROXY METHYL PHENYL PYRAZOLYL UREA COMPOUND USEFUL IN TREATMENT OF CANCER” (BAYER PHARMACEUTICALS CORPORATION, priority 2006, published 2010).

Columns and labels:
Bcr-Abl E255K mutant = settings: cited from earlier work
[1] = tested on: Imatinib-resistant Bcr-Abl mutations; settings: cited from earlier work
Bcr-Abl kinase = settings: greater potency than Imatinib; cited from earlier work
K562 = experiment: Cell proliferation assay, K562; type: cell-based; settings: K562, human cell line expressing wild type Bcr-Abl; 72 hours, Cell Titer Glo
Description: [Worded in the source for another cell line; this cell line is reported under the same test.] (§1) The adherent tumor cell proliferation assay used to test the compounds of the present invention involves a readout called Cell Titre-Glo developed by Promega (Cunningham, B A “A Growing Issue: Cell Proliferation Assays. Modern kits ease quantification of cell growth” The Scientist 2001, 15(13), 26; and Crouch, S P et al., “The use of ATP bioluminescence as a measure of cell proliferation and cytotoxicity” Journal of Immunological Methods 1993, 160, 81-88).
(§2) H460 cells (lung carcinoma, purchased from ATCC) were plated in 96-well plates at 3000 cells/well in complete media with 10% Fetal Calf Serum and incubated 24 hours at 37° C. Twenty-four hours after plating, test compounds were added over a final concentration range of 10 nM to 20 μM in serial dilutions at a final DMSO concentration of 0.2%. Cells were incubated for 72 hours at 37° C. in complete growth media after addition of the test compound. On day 4, using a Promega Cell Titer Glo Luminescent® assay kit, the cells were lysed and 100 microliters of substrate/buffer mixture was added to each well, mixed and incubated at room temperature for 8 minutes. The samples were read on a luminometer to measure the amount of ATP present in the cell lysates from each well, which corresponds to the number of viable cells in that well. Values read at 24-hour incubation were subtracted as Day 0. […]

[2] = tested on: BaF3 parental cell line that does not express Bcr-Abl; experiment: Cell proliferation assay, BaF3 parental cell line; type: cell-based; settings: Mus musculus
BaF3-Abl(T315I) = experiment: Cell proliferation assay, BaF3-Abl(T315I); type: cell-based; settings: Imatinib-resistant mutation
Description: [Worded in the source for another cell line; this cell line is reported under the same test.] as §1, §2

Bcr-Abl-wt kinase = biological target: T1, Bcr-Abl-wt kinase (Homo sapiens, UniProt P00519); experiment: Bcr-Abl wild type biochemical assay
T1 construct: fused on or other part: P11274 (Breakpoint cluster region protein)
T1 sequence (P00519 229-512 limits assumed): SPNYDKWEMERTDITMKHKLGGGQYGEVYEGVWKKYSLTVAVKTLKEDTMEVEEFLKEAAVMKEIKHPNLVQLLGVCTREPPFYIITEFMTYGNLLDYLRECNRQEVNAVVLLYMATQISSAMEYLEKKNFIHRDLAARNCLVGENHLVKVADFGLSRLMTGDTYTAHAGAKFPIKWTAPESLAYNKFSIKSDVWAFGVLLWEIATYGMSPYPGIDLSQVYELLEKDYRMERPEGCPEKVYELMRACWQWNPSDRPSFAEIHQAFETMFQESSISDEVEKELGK
Method: (§3) Bcr-Abl-wt or mutant Bcr-Abl-T315I kinase (0.17 nM) was incubated with Myelin Basic Protein (MBP, 2 μM) in assay buffer consisting of 50 mM Tris pH 7.5, 10 mM MgCl2, 1 mM EGTA, 2 mM DTT, 50 μM ATP and 0.4 μCi of ^33P-ATP. Test compounds were added at varying concentrations (final DMSO conc=1%) prior to the addition of ATP. The reaction mixture was incubated for 1 hour at 32° C. The reaction was then stopped by addition of phosphoric acid (final conc=1%) and samples were transferred to filtermats and read in a betaplate reader. Inhibition of MBP phosphorylation by Bcr-Abl-wt or Bcr-Abl-T315I was analyzed by using a 4 parameter fit and in-house software.

BaF3-Abl(Y253F) = experiment: Cell proliferation assay, BaF3-Abl(Y253F); type: cell-based; settings: Imatinib-resistant mutation
Description: [Worded in the source for another cell line; this cell line is reported under the same test.] as §1, §2

BaF3-Abl(wt) = experiment: Cell proliferation assay, BaF3-Abl(wt); type: cell-based
Description: [Worded in the source for another cell line; this cell line is reported under the same test.] as §1, §2

BaF3-Abl(E255K) = experiment: Cell proliferation assay, BaF3-Abl(E255K); type: cell-based; settings: Imatinib-resistant mutation
Description: [Worded in the source for another cell line; this cell line is reported under the same test.] as §1, §2

BaF3-Abl(M351T) = experiment: Cell proliferation assay, BaF3-Abl(M351T); type: cell-based; settings: Imatinib-resistant mutation
Description: [Worded in the source for another cell line; this cell line is reported under the same test.] as §1, §2

human recombinant c-Met = biological target: T2, human recombinant c-Met (Homo sapiens, UniProt P08581); experiment: c-Met biochemical assay (ELISA)
T2 construct: C-terminal HIS-tagged intracellular kinase domain (956 to 1390 amino acids) human recombinant c-Met; His (C)
Method: An ELISA format was used for the c-Met biochemical assay. This assay uses the C-terminal HIS-tagged intracellular kinase domain (956 to 1390 amino acids) human recombinant c-Met in 96-well plates. 96-Well plates (Costar #9018) coated with poly(GluTyr) (Sigma # P0275) were used in this assay. The poly(GluTyr) substrate coated on the plate was phosphorylated in a 100 μL reaction volume with 2 nM c-Met protein in an assay buffer (50 mM HEPES pH7.0, 5 mM MnCl2, 0.1% BSA, 0.5 mM sodium orthovanadate, 0.1% β-mercaptoethanol), with 0.2 μM ATP (Sigma #A7699). […] After 25 minutes of incubation, the assay reaction was stopped with 25 μL of 100 mM EDTA. The plates were then washed, and wells were treated with 100 μL of 80 ng/mL anti-4G10-HRP antibody (Upstate #16-105) for 1 h. Plates were washed one final time, and were developed with 100 μL 3,3′,5,5′-TMB (Sigma #T8665), and quenched with 100 μL 1M HCl. Plates were read on a Victor 2 plate reader (Perkin Elmer) and IC50 analysis and calculation were performed using in-house software.

[3] = biological target: T3, mutant Bcr-Abl-T315I kinase (Homo sapiens, UniProt P00519, T315I); experiment: Bcr-Abl mutant T315I biochemical assay
T3 construct: fused on or other part: P11274 (Breakpoint cluster region protein)
T3 sequence (P00519 242-493 T315I limits assumed): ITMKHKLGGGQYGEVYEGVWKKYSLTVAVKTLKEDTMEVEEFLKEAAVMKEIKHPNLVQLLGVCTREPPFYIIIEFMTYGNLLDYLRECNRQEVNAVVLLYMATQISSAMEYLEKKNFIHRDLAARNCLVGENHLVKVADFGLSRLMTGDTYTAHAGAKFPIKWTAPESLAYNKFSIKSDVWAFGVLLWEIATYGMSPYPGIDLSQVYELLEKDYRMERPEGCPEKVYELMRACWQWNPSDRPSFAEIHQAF
Method: as §3

early phase CML = settings: patients with early phase CML; cited from earlier work

T2 sequence (P08581 956-1390): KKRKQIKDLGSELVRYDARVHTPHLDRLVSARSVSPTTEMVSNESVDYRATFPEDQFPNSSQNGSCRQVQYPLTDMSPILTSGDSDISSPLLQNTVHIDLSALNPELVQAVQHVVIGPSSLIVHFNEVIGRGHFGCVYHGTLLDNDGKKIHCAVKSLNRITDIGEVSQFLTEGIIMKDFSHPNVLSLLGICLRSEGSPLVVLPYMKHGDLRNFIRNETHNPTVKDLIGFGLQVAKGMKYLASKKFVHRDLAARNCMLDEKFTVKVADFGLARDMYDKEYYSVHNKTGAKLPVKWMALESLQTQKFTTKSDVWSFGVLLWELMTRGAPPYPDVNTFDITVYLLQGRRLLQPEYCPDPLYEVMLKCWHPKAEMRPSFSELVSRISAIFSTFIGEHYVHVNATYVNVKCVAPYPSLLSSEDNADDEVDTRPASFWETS

For `Cc1cn(-c2cc(NC(=O)c3ccc(C)c(Nc4nccc(-c5cccnc5)n4)c3)cc(C(F)(F)F)c2)cn1` [AMN-107, nilotinib], the “inhibition of E255K mutant in a biochemical assay” value (Bcr-Abl E255K mutant) is given as “somewhat weak inhibition”, the “inhibition of Imatinib-resistant Bcr-Abl mutations” value [1] is given as “inhibit most Imatinib-resistant Bcr-Abl mutations, except for T315I” and the “potency of Bcr-Abl kinase inhibition relative to Imatinib” value (Bcr-Abl kinase) is given as 20 fold.
Work on `CNC(=O)c1cc(Oc2ccc(NC(=O)Nc3cc(C(C)(C)C)nn3-c3cccc(CO)c3)c(Cl)c2)ccn1` [ANDREA-1, 4-{4-[({3-tert-Butyl-1-[3-(hydroxymethyl)phenyl]-1H-pyrazol-5-yl}carbamoyl)amino]-3-chlorophenoxy}-N-methylpyridine-2-carboxamide] yielded an IC50 (K562) of 0.448 nM, an IC50 [2] greater than 3000 nM and an IC50 (BaF3-Abl(T315I)) of 71 nM. For the same compound, the IC50 (Bcr-Abl-wt kinase) was less than 10000 nM, the IC50 (BaF3-Abl(Y253F)) was 4.96 nM and the IC50 (BaF3-Abl(wt)) was 2.81 nM. It also gave an IC50 (BaF3-Abl(E255K)) of 53.9 nM, an IC50 (BaF3-Abl(M351T)) of 8.38 nM and an IC50 (human recombinant c-Met) of less than 10000 nM. The IC50 [3] was less than 10000 nM.
For `Cc1ccc(NC(=O)c2ccc(CN3CCN(C)CC3)cc2)cc1Nc1nccc(-c2cccnc2)n1` [Imatinib], the “degree of response at haematological and cytogenetic levels” value (early phase CML) is listed as “greater than 90%”.
